In patent publication US11471467B2, “Ruthenium complexes for treating cancer which comprises cancer stem cells” (UNIVERSIDADE DE SANTIAGO DE COMPOSTELA, priority 2016, dated 2022):

Experiments:
Format in all cases: cell-based
c-MYC = c-MYC protein expression by Western blot in HeLa cells
Method: FIG. 11. (Left) Analysis of the expression levels of c-MYC (light colored bars) and ALAS1 (dark colored bars) by means of qRT-PCR. HeLa cells were incubated for 16 h or 48 h with 100 μM of complex 1 (RuCl), TMPyP4, or 50 μM of 5-FU. The levels are expressed in relation to the expression levels of the GAPDH gene. The values are the average of three experiments, and the error bars indicate standard error. (Right) Analysis of the expression of c-MYC by means of Western blot. HeLa cells were incubated for 16 h with 100 μM of complex 1 (RuCl) and then lysed, and c-MYC was detected by means of SDS-PAGE followed by Western blot with an anti-MYC antibody (right, upper panel). The relative amount of protein in two independent experiments was quantified by means of densitometry (right, lower panel). The data is represented as the factor of change with respect to untreated controls. The error bars indicate the standard deviation of the factor of change with respect to untreated controls.
FIG. 14. (Left) Transcription levels of c-MYC determined by means of qRT-PCR in the dark (black bars) or after irradiation (60 min, white bars). […] The expression values are relative to the expression of the GAPDH gene. (Right) Expression levels of c-MYC protein determined by means of Western blot in the presence or absence of complex 5. The relative amount of protein with respect to the expression levels of β-actin was quantified by means of densitometry (lower panel). The experimental method was similar to the one described in FIG. 11.
FIG. 15. […] The light colored bars correspond to expression levels of c-MYC under irradiation conditions whereas the dark colored bars correspond to darkness conditions. […] The relative levels of protein with respect to the expression levels of β-actin were quantified by means of densitometry.
HeLa cells were incubated to a confluence of 50% in the presence of the indicated concentrations of the assayed agents for 16 h. […] The c-MYC protein was detected by means of an anti-MYC antibody (Santa-Cruz Biotechnologies). […]

[1] = system: Panc185 and PancA6L cells; assay: qRT-PCR gene expression in adherent PDAC cultures; details: 100 μM, 24 hours
Method: FIG. 19. […] The RNA of Panc185 and PancA6L cells was extracted 24 hours after treatment with 100 μM of RuH2O. qRT-PCR analysis of Oct3/4, Sox2, and PGC1alpha was performed in cDNA generated from treated samples. […] Panc185 cells are also interchangeably referred to herein as 185 and 185 scd and Pacn6AL cells are also interchangeably referred to herein as A6L.
Furthermore, a reduction in PGC1alpha expression, a known c-MYC target, and a reduction in pluripotency-associated genes Oct3/4 and Sox2 were observed after treatment with 100 μM of RuH2O for 24 hours (FIG. 19).

[2] = system: Panc185 and PancA6L cells; assay: ToxiLight BioAssay cytotoxicity (adenylate kinase release)
Method: FIG. 20. Cytotoxic effects of RuH2O on PDAC cultures. Relative cell death was determined in adherent cultures (low in CSC) and spheres (rich in CSC) of Panc185 (A) and PancA6L (B) at 24, 48, and 72 hours after treatment with the indicated doses of RuH2O.
It was then studied if the […] c-MYC expression and the phenotype and transcriptional changes observed were cytotoxic. For this analysis, the ToxiLight™ BioAssay kit, a bioluminescent, non-destructive cytolysis assay kit designed for measuring the adenylate kinase (AK) enzyme released from damaged cells (FIG. 20), was used. Adherent cultures (low in CSC) and cultured spheres (rich in CSC) were treated with increasing doses of RuH2O and cytotoxicity was measured 24, 48, and 72 hours after treatment. In adherent cultures and in both assayed cell lines, toxicity was only observed at 72 hours (3-fold increase in dead cells) when the cells were treated with 250 μM of RuH2O.

Substance: [Ru(terpy) (bpy)H2O]^2+ [complex 2]
- c-MYC protein expression (c-MYC; in the dark): active both in the dark and upon being irradiated
- c-MYC protein expression (c-MYC; under irradiation with light): active both in the dark and upon being irradiated
- Oct3/4 expression [1]: reduction
- PGC1alpha expression [1]: reduction
- Sox2 expression [1]: reduction
- increase in dead cells ([2]; adherent cultures (low in CSC), both cell lines, 250 μM, 72 hours): 3 fold
- toxicity (ToxiLight) ([2]; adherent cultures (low in CSC), single dose 100 or 250 μM, 48 hours): no toxicity was observed
- cell death ([2]; spherical cultures (rich in CSC), 100 μM): induced cell death
